{"source": "patent US10278948B1", "about": "“Method for transnasal delivery of anticonvulsant and therapeutic treatments” (priority 2015, dated 2019)", "key": {"[1]": {"settings": "cited from earlier work"}, "[2]": {"assay": "Transnasal administration of topiramate to the sphenopalatine ganglion in human patients (Example 1)", "format": "in vivo", "excerpt": "The devices and methods described above were applied to the treatment of human patients for headache pain, when the inventor observed a dramatic effect with regard to treating obesity and promoting weight-loss. The results of this testing are surprising and unexpected in view of efficacy of the very low dosages administered as compared to published treatment regimens using topiramate without any co-delivered medicament for the treatment of obesity. […] The method of treatment was as follows: Topiramate was dissolved in sterile water to a concentration of 5 mg/mL. Then, 0.3 mL of this solution (1.5 mg of topiramate) per nostril was administered transnasally to the sphenopalatine ganglion using a Tx360® nasal applicator (from Tian Medical of Lombard, Ill.) in the manner described above with reference to the devices shown in FIGS. 6-11B and the relative distal-end anatomic positioning described with reference to FIGS. 4-5. This dosage was administered once per week for four weeks. Each patient lost between 5% and 10% of his/her body weight over the four-week period. […] It is expected that dosage may be effective for headache pain and for promoting weight loss as treatment for obesity at a frequency from once or twice per day to once per month when administered at […] delivered as about 0.2-0.3 mL per nostril toward the SPG. Although this sample is very small, it compares highly favorably to published studies using topiramate for weight loss, and the effective dosage was surprising far lower than the effective dosages reported in the literature. As a first example, in Obesity Review 2011 May; 12(5):e338-47. doi: 10.1111/j.1467-789X.2010.00846.x. Epub 2011 Mar. 28. Efficacy and safety of topiramate on weight loss: a meta-analysis of randomized controlled trials, ten clinical studies (3320 individuals) were evaluated, each of which was a randomized controlled study with at least 16 weeks of duration that reported the effect of topiramate on weight loss and adverse events using topiramate at 96-200 mg/day. […] Although the etiology is not apparent, a highly reasonable hypothesis is that the side effects and lack thereof, respectively, may be related to the significant dosage difference and/or administration mode (96-200 mg/day perorally versus 3 mg/week transnasally)."}, "[3]": {"settings": "cited from earlier work; for mean percent weight loss from baseline to week 24: placebo −2.6%"}, "[4]": {"settings": "96-200 mg/day perorally, at least 16 weeks, ten clinical studies (3320 individuals); cited from earlier work"}, "[5]": {"settings": "every patient, after the first dosage, 3 mg transnasally to the SPG"}}, "note": "Where two headings read alike, the source gives them in different places.", "data": [{"smiles": "CC1(C)O[C@@H]2[C@@H](CO[C@@]3(COS(N)(=O)=O)OC(C)(C)O[C@@H]23)O1", "note": "[topiramate, 2,3:4,5-bis-O-(1-methylethylidene)-β-D-fructopyranose sulfamate]", "values": [{"measurement": "solubility in water", "setting": "[1]", "result": "up to 9.8 mg/mL"}, {"measurement": "side effects (paresthesia, taste impairment and psychomotor disturbances) reported by patients", "setting": "[2]; 3 mg/week transnasally to the SPG", "result": "none of which was reported by patients in the presently-reported example"}, {"measurement": "regular headache pain (patient-reported)", "setting": "[2]; all patients, 3 mg/week transnasally to the SPG", "result": "reduced in frequency and severity"}, {"measurement": "craving for food, nicotine, and alcohol (patient-reported)", "setting": "[2]; [5]", "result": "immediate reduction of craving for food, nicotine, and alcohol"}, {"measurement": "satiety (needing less food intake to feel full; patient-reported)", "setting": "[2]; [5]", "result": "improved satiety"}, {"measurement": "patients with effective weight loss", "setting": "[2]; human patients, 1.5 mg per nostril (3 mg) transnasally to the SPG once per week for four weeks", "result": 100, "unit": "%"}, {"measurement": "mean percent weight loss from baseline to week 24", "setting": "[3]; 64 mg/day topiramate group", "result": "−5.0", "unit": "%"}, {"measurement": "mean percent weight loss from baseline to week 24", "setting": "[3]; 96 mg/day topiramate group", "result": "−4.8", "unit": "%"}, {"measurement": "mean percent weight loss from baseline to week 24", "setting": "[3]; 192 mg/day topiramate group", "result": "−6.3", "unit": "%"}, {"measurement": "mean percent weight loss from baseline to week 24", "setting": "[3]; 384 mg/day topiramate group", "result": "−6.3", "unit": "%"}, {"measurement": "most frequent adverse events", "setting": "[3]; 64-384 mg daily, 24 weeks", "result": "paresthesia, somnolence, and difficulty with memory, concentration, and attention"}, {"measurement": "percentages of patients who lost at least 5% or 10% of body weight compared with placebo", "setting": "[3]; 64-384 mg daily, 24 weeks", "result": "Greater percentages of topiramate-treated patients lost at least 5% or 10% of body weight compared with placebo"}, {"measurement": "frequently observed side effects", "setting": "[4]", "result": "paresthesia, taste impairment and psychomotor disturbances"}]}]}
